Test results published in patent US10131652B2, “Pyrimidinyloxy benzene derivatives as herbicides” (E. I. DU PONT DE NEMOURS AND COMPANY, priority 2014, dated 2018).

Assays:
Assay type in all cases: in vivo
[1] = tested on: Italian ryegrass (Lolium multiflorum); assay: Test B pre-/postemergence plant response
Method in brief: (§1)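 Steps: plant seeds in loam soil–sand mix; spray soil preemergence, and in parallel spray 2–10 cm one- to two-leaf plants postemergence; hold ~10 days in greenhouse; visually rate injury against untreated controls (0 = no effect, 100 = complete control).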

kochia (Kochia scoparia) [2] = assay: Test B pre-/postemergence plant response
Method in brief: as §1

[3] = tested on: ragweed (common ragweed, Ambrosia elatior); assay: Test B pre-/postemergence plant response
Method in brief: as §1

kochia (Kochia scoparia) [4] = assay: Test D postemergence plant response; settings: Bassia scoparia, post-emergence
Method in brief: (§2)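 The formulated test chemicals were applied over the foliage of young potted plants (2 to 18 cm tall), which were then held under greenhouse conditions. Between days 13 and 15 each species was rated by eye versus controls, from 0 for no effect up to 100 for complete control.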

wild oat (Avena fatua) = assay: Test D postemergence plant response; settings: Avena fatua, post-emergence
Method in brief: as §2

[5] = tested on: Italian ryegrass (Lolium multiflorum); assay: Test F pre-/postemergence plant response; settings: Lolium multiflorum, pre-emergence, Preemergence, scale 0 to 100, read-out: Plant response rating, Ryegrass, Italian
Source text: (§3) Seeds of plant species selected from corn (Zea mays), soybean (Glycine max), velvetleaf (Abutilon theophrasti), lambsquarters (Chenopodium album), wild poinsettia (Euphorbia heterophylla), palmer pigweed (Amaranthus palmeri), waterhemp (common waterhemp, Amaranthus rudis), surinam grass (Brachiaria decumbens), large (Lg) crabgrass (Digitaria sanguinalis), Brazilian crabgrass (Digitaria horizontalis), fall panicum (Panicum dichotomiflorum), giant foxtail (Setaria faberii), green foxtail (Setaria viridis), goosegrass (Eleusine indica), johnsongrass (Sorghum halepense), ragweed (common ragweed, Ambrosia elatior), barnyardgrass (Echinochloa crus-galli), sandbur (southern sandbur, Cenchrus echinatus), arrowleaf sida (Sida rhombifolia), Italian ryegrass (Lolium multiflorum), dayflower (Virginia (VA) dayflower, Commelina virginica), field bindweed (Convolvulus arvensis), cocklebur (common cocklebur, Xanthium strumarium), momingglory (Ipomoea coccinea), nightshade (eastern black nightshade, Solanum ptycanthum), kochia (Kochia scoparia), yellow nutsedge (Cyperus esculentus), and hairy beggarticks (Bidens pilosa), were planted into a silt loam soil and treated preemergence with test chemicals formulated in a non-phytotoxic solvent mixture which included a surfactant.
(§4) At the same time, plants from these crop and weed species and also waterhemp_RES1, (ALS & Triazine resistant common waterhemp, Amaranthus rudis), and waterhemp_RES2, (ALS & HPPD resistant common waterhemp, Amaranthus rudis) were treated with postemergence applications of test chemicals formulated in the same manner. Plants ranged in height from 2 to 18 cm for postemergence treatments (1- to 4-leaf stage).
(§5) Treated plants and controls were maintained in a greenhouse for 14 to 21 days, after which time all species were compared to controls and visually evaluated. Plant response ratings, summarized in Table F, are based on a scale of 0 to 100 where 0 is no effect and 100 is complete control. A dash (-) response means no test result.

kochia (Kochia scoparia) [6] = assay: Test F pre-/postemergence plant response; settings: Bassia scoparia, pre-emergence, Preemergence, scale 0 to 100, read-out: Plant response rating, Kochia
Source text: as §3, §4, §5

[7] = tested on: nightshade (eastern black nightshade, Solanum ptycanthum); assay: Test F pre-/postemergence plant response; settings: Solanum, pre-emergence, scale 0 to 100, read-out: Plant response rating, Nightshade
Source text: as §3, §4, §5

[8] = tested on: palmer pigweed (Amaranthus palmeri); assay: Test F pre-/postemergence plant response; settings: Amaranthus palmeri, pre-emergence, scale 0 to 100, read-out: Plant response rating, Pigweed, Palmer
Source text: as §3, §4, §5

[9] = 125 g ai/ha, postemergence, 0 to 100 scale, 0 no effect, 100 complete control
[10] = Postemergence, 500 g ai/ha, 0 to 100 scale (0 no effect, 100 complete control)
[11] = Preemergence, 125 g ai/ha, 0 to 100 scale (0 no effect, 100 complete control)
[12] = Preemergence, 500 g ai/ha, 0 to 100 scale where 0 is no effect and 100 is complete control

## Fc1cccc(Oc2ncc(Cl)cn2)c1-c1cc(C(F)(F)F)on1 [Compound 168, 5-chloro-2-[2-[5-(trifluoromethyl)-3-isoxazolyl]-3-fluorophenoxy]pyrimidine]
[1]; [9]
  Plant response rating, Ryegrass, Italian: 90
[1]; [10]
  Plant response rating, Ryegrass, Italian: 90
[1]; [11]
  Ryegrass, Italian plant response rating: 80
[1]; [12]
  Plant response rating, Ryegrass, Italian: 100
Kochia (Kochia scoparia) [2]; [9]
  Plant response rating, Kochia: 90
Kochia (Kochia scoparia) [2]; [10]
  Plant response rating, Kochia: 90
Kochia (Kochia scoparia) [2]; [11]
  Kochia plant response rating: 100
Kochia (Kochia scoparia) [2]; [12]
  Plant response rating, Kochia: 100
[3]; [9]
  Plant response rating, Ragweed: 90
[3]; [10]
  Plant response rating, Ragweed: 90
[3]; [11]
  Ragweed plant response rating: 70
[3]; [12]
  Plant response rating, Ragweed: 80
Kochia (Kochia scoparia) [4]; 31 g ai/ha, scale 0 to 100 (0 no effect, 100 complete control), read-out: Kochia plant response rating
  pest or weed control at 31 g/ha: 100%
Kochia (Kochia scoparia) [4]; 62 g ai/ha, scale 0 to 100, 0 no effect, 100 complete control, read-out: Plant response rating, Kochia
  pest or weed control at 62 g/ha: 100%
Kochia (Kochia scoparia) [4]; 125 g ai/ha, scale 0 to 100, 0 no effect, 100 complete control, read-out: Plant response rating, Kochia
  pest or weed control at 125 g/ha: 100%
Wild oat (Avena fatua); 31 g ai/ha, scale 0 to 100 (0 no effect, 100 complete control), read-out: Oat, Wild plant response rating
  pest or weed control at 31 g/ha: 10%
Wild oat (Avena fatua); 62 g ai/ha, scale 0 to 100, 0 no effect, 100 complete control, read-out: Plant response rating, Oat, Wild
  pest or weed control at 62 g/ha: 20%
Wild oat (Avena fatua); 125 g ai/ha, scale 0 to 100, 0 no effect, 100 complete control, read-out: Plant response rating, Oat, Wild
  pest or weed control at 125 g/ha: 30%
[5]; 16 g ai/ha
  pest or weed control at 16 g/ha: 15%
[5]; 31 g ai/ha
  pest or weed control at 31 g/ha: 30%
[5]; 125 g ai/ha
  pest or weed control at 125 g/ha: 70%
[5]
  pest or weed control at 62 g/ha: 65%
Kochia (Kochia scoparia) [6]; 16 g ai/ha
  pest or weed control at 16 g/ha: 95%
Kochia (Kochia scoparia) [6]; 31 g ai/ha
  pest or weed control at 31 g/ha: 100%
Kochia (Kochia scoparia) [6]; 125 g ai/ha
  pest or weed control at 125 g/ha: 100%
Kochia (Kochia scoparia) [6]
  pest or weed control at 62 g/ha: 100%
[7]; 16 g ai/ha Preemergence
  pest or weed control at 16 g/ha: 5%
[7]; 31 g ai/ha Preemergence
  pest or weed control at 31 g/ha: 98%
[7]; 125 g ai/ha Preemergence
  pest or weed control at 125 g/ha: 98%
[7]; Preemergence
  pest or weed control at 62 g/ha: 98%
[8]; 16 g ai/ha Preemergence
  pest or weed control at 16 g/ha: 98%
[8]; 31 g ai/ha Preemergence
  pest or weed control at 31 g/ha: 100%
[8]; 125 g ai/ha Preemergence
  pest or weed control at 125 g/ha: 100%
[8]; Preemergence
  pest or weed control at 62 g/ha: 100%
